# US6015801A, “Method for inhibiting bone resorption” (Merck & Co., Inc., priority 1998, dated 2000)
# Read-outs that look alike come from different tables or passages of the source.
# Key:
# [1] = test system: canine esophagus; assay: Esophageal irritation potential in a dog model (infusion into esophagus, histopathology); conditions: for Esophageal irritation potential: low dosages on consecutive days (Groups 7 and 8)
# Description: The esophageal irritation potential of the bisphosphonates is evaluated using a dog model.
# The following solutions are prepared:
# (1) simulated gastric juice (pH about 2), i.e. the control solution.
# (5) simulated gastric juice (pH about 2) containing about 0.20 mg/mL of risedronate sodium on a risedronic acid active basis.
# (6) simulated gastric juice (pH about 2) containing about 4.0 mg/mL of tiludronate disodium on a tiludronic acid active basis.
# The pH of the resulting solution is measured and if necessary is adjusted to about 2 using 1.0 M HCl (aqueous) or 1.0 M NaOH (aqueous).
# The animals used in the experiments are anesthetized and administered about 50 mL of the appropriate solution over about 30 minutes by infusion into the esophagus using an infusion pump and a rubber catheter. The following treatment experiments are run:
# Group 1: This control group contains four animals. Each animal is administered a dosage of about 50 mL of simulated gastric juice [solution (1)] on each of five consecutive days. The animals are sacrificed immediately after the last dose is administered. […]
# Group 7: This group contains eight animals. Each animal is administered a dosage of about 50 mL of simulated gastric juice containing about 0.20 mg/mL of risedronate [solution (5)] on each of five consecutive days. The animals are sacrificed immediately after the last dose is administered.
# Group 8: This group contains four animals. Each animal is administered a dosage of about 50 mL of simulated gastric juice containing about 4.0 mg/mL of tiludronate [solution (6)] on each of five consecutive days. The animals are sacrificed immediately after the last dose is administered.
# The esophagus from each sacrificed animal is removed and prepared for histopathology using standard techniques by embedding the tissue in paraffin, staining with hematoxylin and eosin. The sections are examined microscopically.
# [2] = test system: esophagus; conditions: oral; literature; cited from earlier work
# [3] = test system: bone; conditions: cited from earlier work
# [4] = test system: bone; conditions: Mortensen et al. 1995; cited from earlier work
# [5] = 0.20 mg/mL alendronate, 50 mL, 1x daily for 5 days, sacrifice immediately after last dosing (Group 2, n = 4), monosodium trihydrate
# [6] = 0.40 mg/mL alendronate, 50 mL, 2x weekly for 4 weeks (Group 6, n = 6), sacrifice about four days after last dose, immediately (Table 1), monosodium trihydrate
# [7] = 0.80 mg/mL alendronate, 50 mL, 1x weekly for a total of 4 doses, sacrifice 7 days after last dosing (Group 5, n = 6), monosodium trihydrate
# [8] = 0.80 mg/mL alendronate, 50 mL, single dose, sacrifice 24 hours after dosing (Group 3, n = 5), monosodium trihydrate
# [9] = 0.80 mg/mL alendronate, 50 mL, single dose, sacrifice 7 days after dosing (Group 4, n = 5), monosodium trihydrate
# [10] = 0.20 mg/mL risedronate, 50 mL, 1x daily for 5 days, sacrifice immediately after last dosing (Group 7, n = 8)
compound,measurement,setting,value
"NCCCC(O)(P(=O)(O)O)P(=O)(O)O [Alendronate, 4-amino-1-hydroxybutylidene-1,1-bisphosphonic acid monosodium trihydrate]",Histopathology: esophageal epithelial surface,[1]; [5],deep ulceration of the epithelial surface
same,Histopathology: submucosal inflammation and vacuolation,[1]; [5],marked submucosal inflammation and vacuolation
same,Histopathology: esophageal epithelial surface,[1]; [6],deep ulceration of the epithelial surface
same,Histopathology: submucosal inflammation and vacuolation,[1]; [6],marked submucosal inflammation and vacuolation
same,Histopathology: vacuolation,"[1]; 0.80 mg/mL alendronate, 50 mL, 1x weekly for a total of 4 doses, sacrifice 7 days after last dosing (Group 5, n = 6)",no
same,Histopathology: esophageal epithelium,[1]; [7],normal with an intact epithelium
same,Histopathology: submucosal inflammation,[1]; [7],absence of inflammatory cells in the submucosa and no
same,Histopathology: esophageal epithelial surface,[1]; [8],intact epithelial surface
same,Histopathology: submucosal inflammation and vacuolation,[1]; [8],very slight submucosal inflammation and vacuolation
same,Histopathology: esophageal epithelium,[1]; [9],intact epithelium
same,Histopathology: vacuolation,[1]; [9],no vacuolation and no
same,Adverse esophageal effects associated with use,[2],esophagitis and/or esophageal ulcers
"CC(O)(P(=O)(O)O)P(=O)(O)O [Etidronate, 1-hydroxyethane-1,1-diphosphonic acid]",Effect on bone mineralization,[3]; at doses used clinically,impairs mineralization
same,Effect on bone mineralization,[3]; given daily for more than several days,decline in bone mineralization
"NCCC(O)(P(=O)(O)O)P(=O)(O)O [Pamidronate, 3-amino-1-hydroxypropylidene-1,1-bisphosphonic acid]",Adverse esophageal effects associated with use,[2],esophageal ulcers
"O=P(O)(O)C(O)(Cc1cccnc1)P(=O)(O)O [Risedronate, 1-hydroxy-2-(3-pyridinyl)-ethylidene-1,1-bisphosphonic acid]",Histopathology: animals with deep ulceration of epithelial surface,[1]; [10],4 of 8 animals
same,Histopathology: esophageal epithelial surface,[1]; [10],deep ulceration of the epithelial surface
same,Histopathology: submucosal inflammation and vacuolation,[1]; [10],marked submucosal inflammation and vacuolation
same,Esophageal irritation potential,[1],high
same,"Antiresorptive bone effect, cyclic versus continuous daily dosing",[4],less effective than continuous daily dosing
"O=P(O)(O)C(Sc1ccc(Cl)cc1)P(=O)(O)O [Tiludronate, (4-chlorophenyl)thiomethane-1,1-disphosphonic acid]",Esophageal irritation potential,[1],high
